Here are results for 15 compounds from US20160052936A1, “SPIROINDOLINE DERIVATIVES FOR USE AS GONADOTROPIN-RELEASING HORMONE RECEPTOR ANTAGONISTS” (BAYER PHARMA AKTIENGESELLSCHAFT, priority 2013, published 2016).

SMILES strings stand for the structures.

In the experiment the target is T1, human GnRH receptor (Homo sapiens, UniProt P30968).
T1 construct: host or cells: CHO cells stably expressing human GnRH receptor (line established by Prof. Thomas Gudermann)
T1 sequence (P30968 1-328): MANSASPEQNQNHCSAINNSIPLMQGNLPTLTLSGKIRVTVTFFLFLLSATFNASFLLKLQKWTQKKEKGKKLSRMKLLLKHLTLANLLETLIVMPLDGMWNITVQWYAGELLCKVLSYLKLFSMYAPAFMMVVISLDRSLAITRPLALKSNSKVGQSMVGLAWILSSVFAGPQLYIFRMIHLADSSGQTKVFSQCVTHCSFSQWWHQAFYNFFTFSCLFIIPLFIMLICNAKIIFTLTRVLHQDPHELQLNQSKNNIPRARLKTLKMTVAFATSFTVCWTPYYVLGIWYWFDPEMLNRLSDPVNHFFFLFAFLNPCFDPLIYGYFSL
Briefly: IP-One HTRF assay with buserelin stimulation. The experiment is classed as cell-based. Particulars: CHO cells stably expressing human GnRH receptor; buserelin at EC80; read-out: Potency in IP-One HTRF assay with buserelin (at EC80) stimulation, given as IC50. From the text:
By using homogenous time-resolved fluorescence resonance energy transfer (HTRF), the generation of one component of the GnRH-R signalling cascade can be measured. After stimulation of CHO cells stably expressing human GnRH receptor (established by Prof. Thomas Gudermann, currently University of Marburg, Germany; supplied as frozen cell aliquots by Cell Culture Services, Hamburg, Germany) with the EC80 of the GnRH agonist buserelin, Gq protein-coupled receptor signalling cascade is activated resulting in PLC-dependent cleavage of PIP2 to Inositol-1,4,5-triphosphate (IP3) and Diacylglycerol. The second messenger IP3 is degraded intracellularly to myo-inositol. Inhibition of the final degradation step from Inositol-1-phosphate (IP1) to myo-inositol by addition of lithium chloride leads to accumulation of IP1 in the cells. In cell lysates, IP1 can be detected via an antibody-based HTRF detection technology, where IP1 can displace the FRET acceptor IP1-d2 from binding by Terbium-labelled anti-IP1 antibody as donor resulting in a signal decrease. Compounds were tested for their capability of inhibiting GnRH-R activation by buserelin. For all IP-One HTRF® assays reagents of Cisbio Bioassays (IP-One Tb Jumbo kit, #62IPAPEJ; Cisbio Bioassays, Bagnols sur Cèze Cedex, France) were used.
For the assay, frozen cell aliquots were thawed and a cell suspension (3.33×10^6 cells/mL) containing IP1-d2 (dilution 1:40) was prepared and incubated at 37° C. After 1 h 3 μl of the cell suspension were added to 50 nl of a 100-fold concentrated solution of the test compound in DMSO pre-dispensed in a well of a white low-volume 384-well microtiter plate (Greiner Bio-One, Frickenhausen, Germany). […] Plates were incubated for 1 h at 37° C. and 5% carbon dioxide before the cells were lysed by adding 3 μl Terbium-labelled anti-IP1 antibody (1:40) diluted in Conjugate & Lysis buffer as supplied with the kit. After an incubation for 1 h at 22° C. to enable complete cell lysis and antibody binding to free IP1 or IP1-d2, plates were measured in an HTRF reader, e.g. a RUBYstar, PHERAstar (both BMG Labtechnologies, Offenburg, Germany) or a Viewlux (PerkinElmer LAS, Rodgau-Jügesheim, Germany).
From the fluorescence emissions at 665 nm (FRET) and at 620 nm (background signal of Terbium-antibody), the ratio (emission at 665 nm divided by emission at 620 nm) was calculated and the data were normalized (reaction without test compound=0% inhibition; all other assay components except agonist=100% inhibition). On the same microtiter plate, compounds were tested at 10 different concentrations in the range of 20 μM to 1 nM (20 μM, 6.7 μM, 2.2 μM, 0.74 μM, 0.25 μM, 82 nM, 27 nM, 9.2 nM, 3.1 nM and 1 nM; dilution series prepared before the assay at the level of the 100-fold conc. stock solutions by serial 1:3 dilutions in 100% DMSO) in duplicate values for each concentration. By using an in-house software, the IC50 values were calculated by a 4 parameter fit.
Within the meaning of the present invention the antagonist activity is reflected by the ability of a compound of the invention to antagonize human GnRH receptor stimulation in IP-One HTRF® assay at least three times the standard deviation over the background level.
The IC50 is the midpoint of a concentration-inhibition curve. In the case of `O=C(NCc1ncc(C(F)(F)F)cc1Cl)c1ccc2c(c1)C1(CC[S+]([O-])CC1)C(C1CC1)N2S(=O)(=O)c1ccc(F)cc1` (mixture of isomers) [Example 2, N-{[3-chloro-5-(trifluoromethyl)pyridin-2-yl]methyl}-2-cyclopropyl-1-[(4-fluorophenyl)sulfonyl]-1,2,2′,3′,5′,6′-hexahydrospiro[indole-3,4′-thiopyran]-5-carboxamide 1′-oxide], the IC50 is 27 nM.
For `O=C(NCc1ncc(C(F)(F)F)cc1F)c1ccc2c(c1)C1(CCS(=O)(=O)CC1)C(C1CC1)N2S(=O)(=O)c1ccc(F)cc1` (racemic) [Example 1, 2-cyclopropyl-1-[(4-fluorophenyl)sulfonyl]-N-{[3-fluoro-5-(trifluoromethyl)pyridin-2-yl]methyl}-1,2,2′,3′,5′,6′-hexahydrospiro[indole-3,4′-thiopyran]-5-carboxamide 1′,1′-dioxide] the value was 420 nM; for `O=C(NCc1ncc(C(F)(F)F)cc1Cl)c1ccc2c(c1)C1(CCS(=O)(=O)CC1)C(C1CC1)N2S(=O)(=O)c1ccc(F)cc1` (racemic) [Example 3, N-{[3-chloro-5-(trifluoromethyl)pyridin-2-yl]methyl}-2-cyclopropyl-1-[(4-fluorophenyl)sulfonyl]-1,2,2′,3′,5′,6′-hexahydrospiro[indole-3,4′-thiopyran]-5-carboxamide 1′,1′-dioxide], 53 nM.
To `O=C(NCc1ncc(Cl)cc1C(F)(F)F)c1ccc2c(c1)C1(CCS(=O)(=O)CC1)C(C1CC1)N2S(=O)(=O)c1ccc(F)cc1` (racemic) [Example 4, N-{[5-chloro-3-(trifluoromethyl)pyridin-2-yl]methyl}-2-cyclopropyl-1-[(4-fluorophenyl)sulfonyl]-1,2,2′,3′,5′,6′-hexahydrospiro[indole-3,4′-thiopyran]-5-carboxamide 1′,1′-dioxide] belongs 69 nM; to `Cc1cnc(CNC(=O)c2ccc3c(c2)C2(CCS(=O)(=O)CC2)C(C2CC2)N3S(=O)(=O)c2ccc(F)cc2)c(C(F)(F)F)c1` (racemic) [Example 5, 2-cyclopropyl-1-[(4-fluorophenyl)sulfonyl]-N-{[5-methyl-3-(trifluoromethyl)pyridin-2-yl]methyl}-1,2,2′,3′,5′,6′-hexahydrospiro[indole-3,4′-thiopyran]-5-carboxamide 1′,1′-dioxide], 864 nM.
For `COc1cccc(S(=O)(=O)N2c3ccc(C(=O)NCc4ncc(C(F)(F)F)cc4F)cc3C3(CCS(=O)(=O)CC3)C2C2CC2)c1` (racemic) [Example 6, 2-cyclopropyl-N-{[3-fluoro-5-(trifluoromethyl)pyridin-2-yl]methyl}-1-[(3-methoxyphenyl)sulfonyl]-1,2,2′,3′,5′,6′-hexahydrospiro[indole-3,4′-thiopyran]-5-carboxamide 1′,1′-dioxide] the value was 231 nM; for `N#Cc1ccc(S(=O)(=O)N2c3ccc(C(=O)NCc4ncc(C(F)(F)F)cc4F)cc3C3(CCS(=O)(=O)CC3)C2C2CC2)cc1` (racemic) [Example 7, 1-[(4-cyanophenyl)sulfonyl]-2-cyclopropyl-N-{[3-fluoro-5-(trifluoromethyl)pyridin-2-yl]methyl}-1,2,2′,3′,5′,6′-hexahydrospiro[indole-3,4′-thiopyran]-5-carboxamide 1′,1′-dioxide], 69 nM; for `N#Cc1cccc(S(=O)(=O)N2c3ccc(C(=O)NCc4ncc(C(F)(F)F)cc4F)cc3C3(CCS(=O)(=O)CC3)C2C2CC2)c1` (racemic) [Example 9, 1-[(3-cyanophenyl)sulfonyl]-2-cyclopropyl-N-{[3-fluoro-5-(trifluoromethyl)pyridin-2-yl]methyl}-1,2,2′,3′,5′,6′-hexahydrospiro[indole-3,4′-thiopyran]-5-carboxamide 1′,1′-dioxide], 311 nM.
Consider `N#Cc1cccc(S(=O)(=O)N2c3ccc(C(=O)NCc4ncc(C(F)(F)F)cc4Cl)cc3C3(CCS(=O)(=O)CC3)C2C2CC2)c1` (racemic) [Example 10, N-{[3-chloro-5-(trifluoromethyl)pyridin-2-yl]methyl}-1-[(3-cyanophenyl)sulfonyl]-2-cyclopropyl-1,2,2′,3′,5′,6′-hexahydrospiro[indole-3,4′-thiopyran]-5-carboxamide 1′,1′-dioxide], for which the half-maximal inhibitory concentration (IC50) was 29 nM.
To `O=C(NCc1ncc(C(F)(F)F)cc1F)c1ccc2c(c1)C1(CCS(=O)(=O)CC1)C(C1CC1)N2S(=O)(=O)c1cccc(OC(F)(F)F)c1` (racemic) [Example 11, 2-cyclopropyl-N-{[3-fluoro-5-(trifluoromethyl)pyridin-2-yl]methyl}-1-{[3-(trifluoromethoxy)phenyl]sulfonyl}-1,2,2′,3′,5′,6′-hexahydrospiro[indole-3,4′-thiopyran]-5-carboxamide 1′,1′-dioxide] belongs 760 nM.
Take `O=C(NCc1ncc(C(F)(F)F)cc1Cl)c1ccc2c(c1)C1(CCS(=O)(=O)CC1)C(C1CC1)N2S(=O)(=O)c1cccc(OC(F)(F)F)c1` (racemic) [Example 12, N-{[3-chloro-5-(trifluoromethyl)pyridin-2-yl]methyl}-2-cyclopropyl-1-{[3-(trifluoromethoxy)phenyl]sulfonyl}-1,2,2′,3′,5′,6′-hexahydrospiro[indole-3,4′-thiopyran]-5-carboxamide 1′,1′-dioxide]: the IC50 stood at 219 nM.
On to `O=C(NCc1ncc(C(F)(F)F)cc1F)c1ccc2c(c1)C1(CCS(=O)(=O)CC1)C(C1CC1)N2S(=O)(=O)c1cccc(OC(F)F)c1` (racemic) [Example 13, 2-cyclopropyl-1-{[3-(difluoromethoxy)phenyl]sulfonyl}-N-{[3-fluoro-5-(trifluoromethyl)pyridin-2-yl]methyl}-1,2,2′,3′,5′,6′-hexahydrospiro[indole-3,4′-thiopyran]-5-carboxamide 1′,1′-dioxide], for which the IC50 is 423 nM.
To `O=C(NCc1ncc(C(F)(F)F)cc1F)c1ccc2c(c1)C1(CCS(=O)(=O)CC1)C(C1CC1)N2S(=O)(=O)c1ccc(OC(F)F)cc1` (racemic) [Example 15, 2-cyclopropyl-1-{[4-(difluoromethoxy)phenyl]sulfonyl}-N-{[3-fluoro-5-(trifluoromethyl)pyridin-2-yl]methyl}-1,2,2′,3′,5′,6′-hexahydrospiro[indole-3,4′-thiopyran]-5-carboxamide 1′,1′-dioxide] belongs 112 nM; to `O=C(NCc1ncc(C(F)(F)F)cc1Cl)c1ccc2c(c1)C1(CCS(=O)(=O)CC1)C(C1CC1)N2S(=O)(=O)c1ccc(OC(F)F)cc1` (racemic) [Example 16, N-{[3-chloro-5-(trifluoromethyl)pyridin-2-yl]methyl}-2-cyclopropyl-1-{[4-(difluoromethoxy)phenyl]sulfonyl}-1,2,2′,3′,5′,6′-hexahydrospiro[indole-3,4′-thiopyran]-5-carboxamide 1′,1′-dioxide], 37 nM.
As to `NC(=O)c1ccc(S(=O)(=O)N2c3ccc(C(=O)NCc4ncc(C(F)(F)F)cc4Cl)cc3C3(CCS(=O)(=O)CC3)C2C2CC2)cc1` (racemic) [Example 17, 1-[(4-carbamoylphenyl)sulfonyl]-N-{[3-chloro-5-(trifluoromethyl)pyridin-2-yl]methyl}-2-cyclopropyl-1,2,2′,3′,5′,6′-hexahydrospiro[indole-3,4′-thiopyran]-5-carboxamide 1′,1′-dioxide], the 50% inhibitory concentration (IC50) was 260 nM.
